Patent US7776873B2, “Method for treating damage to gastric mucosa” (Yuhan Corporation, priority 2005, dated 2010)

Assays:
[1] = system: heat-shock proteins, HO-1, HSP27, HSP70; experiment: Expression of heat-shock proteins in indomethacin-treated cells (Western blotting); format: cell-based, rat; conditions: RGM-1 cells, 5, 10 and 25 uM for 16 hours, then indomethacin 0.5 uM 16 hours, FIG. 7
Experimental: To measure expression of heat-shock proteins, HO-1, HSP27, HSP70, cells were pretreated with concentrations of 5, 10, and 25 μM revaprazan, and then treated with indomethacin (a NSAID, 0.5 μM).
The rat gastric mucosal (RGM-1, RIKEN cell bank, Japan) cells were seeded in culture dishes at 2×10^6 cells/100 mm^2 and cultured in DMEM-F12 (Gibco BRL, Grand Island, N.Y., U.S.A.), supplemented with 100 units/mL penicillin, 100 ug/mL streptomycin, and 10% FBS (Fetal Bovine Serum). RGM-1 cells were pretreated with revaprazan (5, 10, and 25 uM) and cultured 37° C. for 16 hours. The culture media were removed and the cells were washed three times with PBS (137 mM NaCl, 2.7 mM KCl, 10 mM Na2HPO4, and 2 mM KH2PO4). A solution of indomethacin in sterilized water was added to the cells to reach a final concentration of 0.5 uM, and the cells were incubated at 37° C. for 16 hours. After incubation, the cells were resuspended in a lysis buffer (20 mM Tris-Cl (pH 7.5), 150 mM NaCl, 1% Triton X-100, 1 mM EDTA, and protease inhibitor cocktail (Roche, Mannheim, Germany)). The suspension was sonicated for approximately 10 seconds, four times using the BIORUPTOR (Cosmo Bio, Koto-ku, Tokyo), and centrifuged at 4° C., 12000 rpm for 30 minutes. […]

[2] = system: VEGF (Vascular Endothelial Growth Factor); experiment: Expression level of VEGF in sulindac-treated cells (RT-PCR); format: cell-based, rat; conditions: RGM-1 cells, revaprazan 25 uM (rebamipide 50 uM) 16 hours, then sulindac 100 uM 8 hours, FIG. 6
Experimental: (§1) In order to evaluate cytoprotective effect of revaprazan, 100 μM of sulindac belonging to NSAIDs was added to the rat cells, and the expression levels of pro-angiogenic growth factors, VEGF (Vascular Endothelial Growth Factor), interleukin-8 (IL-8), and COX-2 (cyclooxygenase-2) were measured. Rebamipide (50 μM), known to have cytoprotective properties, was used as a control drug and revaprazan (25 μM) was used as a test drug. The rat gastric mucosal (RGM-1, RIKEN cell bank, Japan) cells were seeded in culture dishes at 2×10^6 cells/100 mm^2 and cultured in RPMI 1640 (Gibco BRL, Grand Island, N.Y., U.S.A.), supplemented with 100 units/mL penicillin, 100 ug/mL streptomycin, and 10% FBS (Fetal Bovine Serum). […] The culture media were removed and the cells were washed three times with PBS (137 mM NaCl, 2.7 mM KCl, 10 mM Na2HPO4, and 2 mM KH2PO4). A solution of sulindac in DMSO was added to the cells to reach a final concentration of 100 uM and the cells were cultured at 37° C. for 8 hours. The cultured cells were collected by centrifugation at 23° C. at 3000 rpm for 3 minutes, and the total RNA was isolated from the cells using the TRIzol reagent (Life technologies, Milan, Italy). Sterilized RNase-free water was added to 2 μg of the total RNA and 1 μl of 10 pmol/λ oligo dT to obtain reaction solutions with a volume of 34 μl. […]

[3] = system: indomethacin-induced gastric mucosal lesions; experiment: Preventive effect on in vivo indomethacin-induced gastric injury; parameters: species or system Sprague-Dawley male rats; conditions: rats, 10 mg/kg via oro-gastric tube prior to indomethacin 40 mg/kg for 12 hrs, FIG. 3A
Text: Six-week old specific-pathogen-free (SPF) Sprague-Dawley male rats (Charles River, Tokyo, Japan) were used for experiments. The rats were fed a sterilized commercial pellet diet (Biogenomics Co., Seoul, Korea), given sterile water ad libitum, and housed in air-conditioned biohazard room with a 12-h light:12-h dark cycle. The rats were divided into four groups; indomethacin-only treatment group, revaprazan-indomethacin treatment group, ethanol-only treatment group and revaprazan-ethanol treatment group. The rats were food-deprived 24 hours, and then administered with 10 mg/kg revaprazan suspended in 0.5% CMC (carboxymethylcellulose) via oro-gastric tube prior to exposure to either indomethacin (40 mg/kg for 12 hrs) or absolute ethanol (6 ml/kg for 1 hr). The stomachs of the rats belonging to the groups treated with indomethacin were excised and the degree of gastric mucosal lesions was observed (see FIG. 3A). Referring to FIG. 3A, in the indomethacin-only treatment group, increased hemorrhagic lesions in gastric mucosa were observed visually. […] Also, the stomachs of the rats belonging to the ethanol treatment groups were excised and the degree of gastric mucosal lesions was observed (see FIG. 3B).

[4] = system: rat gastric mucosal (RGM-1) cells; experiment: Incidence of ethanol-induced cell death (MTT assay-2); format: cell-based; conditions: FIG. 2
Experimental: The rat gastric mucosal (RGM-1, RIKEN cell bank, Japan) cells were seeded onto 96-well plate at 5×10^4 cells/ml and cultured in DMEM-F12 (Gibco BRL, Grand Island, N.Y., U.S.A.), supplemented with 100 units/mL penicillin, 100 ug/mL streptomycin, and 10% FBS (Fetal Bovine Serum). […] To remove DMEM-F12 media, the plate was centrifuged at 24° C., 3000 rpm for 5 minutes and washed three times with PBS (137 mM NaCl, 2.7 mM KCl, 10 mM Na2HPO4, and 2 mM KH2PO4). Then, ethanol-containing media (200 mM ethanol-containing DMEM-F12, supplemented with 100 units/mL penicillin, 100 ug/mL streptomycin, and 10% FBS) was added to the cells, and the cells were cultured at 37° C. for 16 hours. After the incubation, the culture was centrifuged at 24° C., 3000 rpm for 5 minutes to remove the culture medium and then total viable cell numbers were assessed by MTT (3-[4,5-dimethylthiazol-2-yl]-2,5-diphenyl tetrazolim bromide) assay method. 1 mg/ml of an MTT solution prepared by dissolving MTT (Amresco, Ohio, U.S.A.) in PBS (137 mM NaCl, 2.7 mM KCl, 10 mM Na2HPO4, and 2 mM KH2PO4) was added to each well (50 μl/well), followed by incubation at 37° C. for 4 hours. The supernatant was then removed by centrifugation at 24° C., 3000 rpm for 5 minutes and the formazan grains formed by the viable cells were dissolved in 99.5% dimethylsulfoxide (DMSO) (Kanto, Tokyo, Japan) (50 μl/well), and the optical intensity was measured at 540 nm using an ELISA reader (TECAN, Maennedorf, Switzerland).

[5] = system: COX-2 (cyclooxygenase-2); experiment: Expression level of COX-2 in sulindac-treated cells (RT-PCR); format: cell-based, rat; conditions: RGM-1 cells, revaprazan 25 uM (rebamipide 50 uM) 16 hours, then sulindac 100 uM 8 hours, FIG. 6
Experimental: as §1

## Cc1nc(Nc2ccc(F)cc2)nc(N2CCc3ccccc3C2C)c1C (stereo not drawn) [revaprazan, 5,6-dimethyl-2-(4-fluorophenylamino)-4-(1-methyl-1,2,3,4-tetrahydroisoquinolin-2-yl)pyrimidine]
[1]
  expression of heat-shock proteins: stimulating expression
[2]
  expression level of VEGF versus rebamipide-sulindac treatment group: much higher
[3]
  indomethacin-induced gastric injury: completely inhibited
[4]; 50 uM each
  cytoprotective effect against ethanol-induced cytotoxicity compared with rebamipide: equal to or greater than rebamipide
[4]; 50 uM pretreatment for 16 hours, then 200 mM ethanol for 16 hours
  ethanol-induced gastric mucosal cytotoxicity: significantly reduced
[5]
  expression level of COX-2 versus rebamipide-sulindac treatment group: much higher
